Values quoted from earlier work in publication PMC4460250, “Systems Pharmacology Dissecting Holistic Medicine for Treatment of Complex Diseases: An Example Using Cardiocerebrovascular Diseases Treated by TCM” (Evidence-based Complementary and Alternative Medicine : eCAM, 2015).

conditions: human; PreHIA data set, value given as fraction; cited from earlier work

Structure (SMILES)	HIA(Human Intestinal Absorption)
Nc1ccc(S(=O)(=O)c2ccc(N)cc2)cc1 [Dapsone]	0.9

same assay, conditions: in vivo; cited from earlier work

Structure (SMILES)	HIA(Human Intestinal Absorption)
CN(C)CCCN1c2ccccc2Sc2ccc(Cl)cc21 [Chlorpromazine]	0.98
Cc1c(OCC(F)(F)F)ccnc1C[S+]([O-])c1nc2ccccc2[nH]1 (centres unmarked) [Lansoprazole]	0.85
O=P(O)(O)C(Cl)(Cl)P(=O)(O)O [Clodronate]	0.03
CC(=O)N(CC(O)CO)c1c(I)c(C(=O)NCC(O)CO)c(I)c(C(=O)NCC(O)CO)c1I (centres unmarked) [Iohexol]	0.05
CC(=O)Nc1ccc(O)cc1 [Paracetamol]	0.8
CC(=O)Nc1c(I)c(NC(C)=O)c(I)c(C(=O)O)c1I [Diatrizoate]	0.05
C[C@@H]1O[C@@H]1P(=O)(O)O [Fosfomycin]	0.31
[H]/N=C(/N)N[C@H]1[C@H](O)[C@@H](O)[C@H](O[C@@H]2O[C@@H](C)[C@](O)(C=O)[C@H]2O[C@@H]2O[C@@H](CO)[C@H](O)[C@@H](O)[C@@H]2NC)[C@@H](N/C(N)=N\[H])[C@@H]1O [Streptomycin]	0.01
CO[C@H]1C[C@H](O[C@H]2CC[C@]3(C=O)[C@H]4CC[C@]5(C)[C@@H](C6=CC(=O)OC6)CC[C@]5(O)[C@@H]4CC[C@]3(O)C2)O[C@H](C)[C@H]1O [Cymarin]	0.47
NNC(=O)c1ccncc1 [Isoniazid]	0.8
C[C@](N)(Cc1ccc(O)c(O)c1)C(=O)O [Methyldopa]	0.41
OCCN(CCO)c1nc(N2CCCCC2)c2nc(N(CCO)CCO)nc(N3CCCCC3)c2n1 [Dipyridamole]	0.58
C#C[C@]1(O)CC[C@H]2[C@@H]3[C@H](C)CC4=C(CCC(=O)C4)[C@H]3CC[C@@]21C [Tibolone]	0.9
CN(C)CC/C=C1\c2ccccc2CSc2ccccc21 [Dothiepin]	0.95
Nc1ccn([C@H]2CC[C@@H](CO)O2)c(=O)n1 [Zalcitabine]	0.85
COC(=O)Nc1nc2ccc(C(=O)c3ccccc3)cc2[nH]1 [Mebendazole]	1

Structure (SMILES)	HIA(Human Intestinal Absorption)
CCCN(CCC)S(=O)(=O)c1ccc(C(=O)O)cc1 [Probenecid]	1
Cc1onc(-c2c(F)cccc2Cl)c1C(=O)N[C@@H]1C(=O)N2[C@@H]1SC(C)(C)[C@@H]2C(=O)O [Floxacillin]	0.8
Cn1cc[nH]c1=S [Methimazole]	0.95
C[n+]1ccccc1/C=N/O [Pralidoxime]	0.3
CO/N=C(\C(=O)N[C@@H]1C(=O)N2C(C(=O)O)=C(CSc3nc(=O)c(=O)[nH]n3C)CS[C@H]12)c1csc(N)n1 [Ceftriaxone]	1
C=CCNc1nc(NCC=C)nc(N2CCN(C(c3ccc(F)cc3)c3ccc(F)cc3)CC2)n1 [Almitrine]	0.9
O=C1c2ccccc2C(=O)C1c1ccccc1 [Phenindione]	1
CC(=O)c1ccc(S(=O)(=O)NC(=O)NC2CCCCC2)cc1 [Acetohexamide]	0.8
CC#Cc1cn([C@@H]2O[C@H](CO)[C@@H](O)[C@@H]2O)c(=O)[nH]c1=O [Netivudine]	0.28
O=NN(CCCl)C(=O)NCCCl [Carmustine]	1
O=C(NCCO[N+](=O)[O-])c1cccnc1 [Nicorandil]	1
CN(C/C=C/C#CC(C)(C)C)Cc1cccc2ccccc12 [Terbinafine]	0.8
COc1cc(Cc2cnc(N)nc2N)cc(OC)c1OC [Trimethoprim]	0.97
CN(C)CCc1c[nH]c2ccc(CS(=O)(=O)N3CCCC3)cc12 [Almotriptan]	0.75
O=C(O)c1cc(/N=N/c2ccc(S(=O)(=O)Nc3ccccn3)cc2)ccc1O [Sulphasalazine]	0.59
